{
  "source": "a melting point compilation (Tetko et al.; mined from patent text by program, amines drawn as free bases though some values may be those of a salt)",
  "data": [
    {"units": {"melting point": "°C"}, "values": [
      {"smiles": "CCCc1c(OCCCSc2cccc(CC(=O)O)c2F)ccc(C(C)=O)c1O", "melting point": "63 to 65"},
      {"smiles": "COc1ccc2cc(-c3nn(C(C)c4oc5ccccc5c(=O)c4-c4cccc(F)c4)c4ncnc(N)c34)ccc2c1", "note": "(stereo unspecified)", "melting point": "285 to 287"},
      {"smiles": "O=C(Nc1cc(Cl)cc(Cl)c1)c1cc(F)ccc1O", "melting point": "258 to 260"},
      {"smiles": "ClC(Cl)(Cl)c1nc2ccccc2o1", "melting point": 102},
      {"smiles": "CC1(C)CCC(C)(C)c2cc(-c3cccc(C#CC(=O)O)c3)ccc21", "melting point": "164 to 165"},
      {"smiles": "NC(=O)NCCNc1ccc([N+](=O)[O-])cc1", "melting point": 187},
      {"smiles": "CSCC(=O)C(Cc1ccccc1)NC(=O)C(CC(C)C)NC(=O)Cc1cccc2ccccc12", "note": "(stereo unspecified)", "melting point": "126 to 129"},
      {"smiles": "CNC(=O)Nc1ccc2c(c1)OC(C)(CCl)O2", "note": "(stereo unspecified)", "melting point": 156},
      {"smiles": "COC(=O)CCCc1cc2nc(Cl)ccc2n1S(=O)(=O)c1cccc(C(C)C)c1", "melting point": 92},
      {"smiles": "CN1C(=O)CN=C(c2ccccc2F)c2c1cc(Cl)c(NC(=O)C(F)(F)F)c2Cl", "melting point": "238 to 240"},
      {"smiles": "O=C(O)c1cccc(-c2ccc(F)c3cc(Cc4ccc(F)c(F)c4)sc23)c1", "melting point": "224 to 225"},
      {"smiles": "N#Cc1cnc2c(Br)csc2c1Cl", "melting point": "176 to 178"},
      {"smiles": "CCOC(=O)Oc1ccc(OC)c(N)c1", "melting point": "150 to 151"},
      {"smiles": "COc1ccc(Cl)cc1S(=O)(=O)Nc1onc(C)c1Br", "melting point": "180 to 184"},
      {"smiles": "CCCCCCCCCCCCCCCCOC[C@@H]1OCCC[C@H]1OP(=O)([O-])OCC[N+](C)(C)C", "note": "(relative stereo)", "melting point": "220 to 224"},
      {"smiles": "Cc1cc(O)nc2nc(SCc3ccccc3)nn12", "melting point": "219 to 220"},
      {"smiles": "O=[N+]([O-])c1ccccc1COc1ccc2ncc3c(c2c1)CCCC3", "melting point": "153 to 154"},
      {"smiles": "COC(=O)c1ccc(I)c2c(=O)c3ccccc3[nH]c12", "melting point": "189 to 191"},
      {"smiles": "O=C(O)Cc1ccc(NC(=O)C(COc2ccccc2)NS(=O)(=O)c2ccc(Br)cc2)cc1", "note": "(racemic)", "melting point": "201 to 204"},
      {"smiles": "O=C(N=c1sc2cc(C(F)(F)F)ccc2n1CCO)C(F)(F)F", "melting point": 198},
      {"smiles": "CCC(C)(C)c1ccc(OCCCCc2c(O)c(N)c3ccccc3c2C(N)=O)c(C(C)(C)CC)c1", "melting point": "93 to 96"},
      {"smiles": "NNc1cc(OCC2CCCSC2)c(Cl)cc1F", "note": "(stereo unspecified)", "melting point": "83 to 87"},
      {"smiles": "CCCCCN1C(=O)C(O)(c2cc3c(cc2O)OCO3)c2cnccc21", "note": "(stereo unspecified)", "melting point": "193 to 195"},
      {"smiles": "Cc1cccc2c(Nc3ccc(OCCCCN(CCCl)CCCl)cc3)c3cccc(C(=O)NCCN(C)C)c3nc12", "melting point": "166 to 167"},
      {"smiles": "Nc1ccc(NCCc2ccccc2)c(S(=O)(=O)CCO)c1", "melting point": 197},
      {"smiles": "CCCC(=O)Nc1ccc2c(c1)C(=O)c1cc(NC(=O)CCC)ccc1C2=O", "melting point": 275},
      {"smiles": "Cc1cc(OC(=O)N(C)C)nc(C(Cl)(Cl)Cl)n1", "melting point": "83.5 to 84.5"},
      {"smiles": "ON=Cc1csc2ccccc12", "melting point": "87 to 89"},
      {"smiles": "O=C(O)Cn1c(=O)[nH]c(=O)c2ccc(Cl)cc21", "melting point": 306},
      {"smiles": "O=C1CCCC1c1ccc(Cl)cc1", "note": "(stereo unspecified)", "melting point": "154 to 155"},
      {"smiles": "CCc1nc2c(N)nc3ccccc3c2n1CCCCS(=O)(=O)N(C)C", "melting point": "193 to 195"},
      {"smiles": "NC(=O)N(O)CC#CCOc1ccccc1", "melting point": "97 to 99"},
      {"smiles": "O=C(CCNCC(O)COc1cccc2occc12)NCc1ccccc1", "note": "(stereo unspecified)", "melting point": "109 to 110"},
      {"smiles": "O=C(NC1N=C(c2ccccc2F)c2ccccc2NC1=O)OCc1ccccc1", "note": "(racemic)", "melting point": 208},
      {"smiles": "FC(F)c1cc(-c2cccc(C(F)(F)F)c2)nc2c(I)cnn12", "melting point": 130},
      {"smiles": "CC1(C)N=C(c2ccccc2)CC1c1ccccn1", "note": "(stereo unspecified)", "melting point": "101 to 102"},
      {"smiles": "CCCn1c(=O)c2[nH]c(/C=C/c3cc(Br)c(OC)c(OC)c3)nc2n(CCC)c1=O", "melting point": "277 to 278"},
      {"smiles": "COc1nc2cc(Cl)c(Cl)c(-n3c(CO)nnc3-c3cccnc3)c2nc1OC", "melting point": "209 to 210"},
      {"smiles": "O=C(NO)[C@H](CNS(=O)(=O)c1ccc(OCc2ccc3ccccc3c2)cc1)N1CCCCC1", "melting point": 106},
      {"smiles": "Cc1ccc(S(=O)(=O)NC(=O)Nc2ccc(C(F)(F)F)cc2)cc1", "melting point": "194 to 197"},
      {"smiles": "CCNc1nc(C)c(-c2ccnc(Nc3cccc(S(=O)(=O)NCc4ccccc4)c3)n2)s1", "melting point": "204 to 205"},
      {"smiles": "COc1ccc(F)cc1C(C)(C)CC(O)(Cc1cccc(-c2cccnc2)c1)C(F)(F)F", "note": "(stereo unspecified)", "melting point": "148 to 150"},
      {"smiles": "N#Cc1ccc(-c2ccc(NCCCC3CCCCO3)cc2)cc1", "note": "(stereo unspecified)", "melting point": "111 to 113"},
      {"smiles": "CC(C)C(NC(=O)OC(C)(C)C)C(=O)NC(C(=O)OCC1OC(n2cc(C=CBr)c(=O)[nH]c2=O)CC1N=[N+]=[N-])C(C)C", "note": "(stereo unspecified)", "melting point": "95 to 97"},
      {"smiles": "Cc1c(C(=O)O)cnn1-c1ccc([N+](=O)[O-])cc1", "melting point": 202},
      {"smiles": "CC(=O)Nc1ccc(NC(=O)NC23CC4CC(CC(C4)C2)C3)cn1", "melting point": "252 to 254"},
      {"smiles": "CCC(C(=O)N(C)C)n1cc(C)c(-c2ccc(Cl)cc2C)n1", "note": "(stereo unspecified)", "melting point": "89 to 92"},
      {"smiles": "CCC(=O)Nc1ccc(C(=O)NCCN(CC)CC)c(OC)c1", "melting point": 137},
      {"smiles": "C#CC1N(C(=O)Oc2ccccc2)c2ccc(OC)cc2C23OC12CCCC3=O", "note": "(stereo unspecified)", "melting point": "186 to 188"},
      {"smiles": "O=C1c2cc3nnn(CCc4cccc(F)c4)c(=O)c3cc2OC2OCCN12", "note": "(stereo unspecified)", "melting point": "191 to 193"},
      {"smiles": "CC(C)N1C(=O)N(c2ccc(F)cc2)CSC1=NC(C)(C)C", "melting point": "109 to 110"},
      {"smiles": "O=C(Cc1ccccc1)Cc1ccc(Cl)c(Cl)c1", "melting point": "131 to 133"},
      {"smiles": "COC(=O)/C=C/C=C(c1ccccc1OC)c1ccccc1OC", "melting point": "100 to 102"},
      {"smiles": "CCCCOc1nc(N)c2[nH]c(=O)n(CCNc3cccc(CC(=O)OC)c3)c2n1", "melting point": "222 to 223"},
      {"smiles": "CCOc1cc(-n2c(=O)cc(C(F)(F)F)n(C)c2=O)c(F)cc1Cl", "melting point": "118 to 121"},
      {"smiles": "COc1ccc2c(c1)CCCCN2C(=O)Nc1cccc(C(F)(F)F)c1", "melting point": 108},
      {"smiles": "CN1CCCC1CCNc1nccc(Oc2ccc(NC(=O)c3cc(F)cc(N4CCOCC4)c3)c3ccccc23)n1", "note": "(stereo unspecified)", "melting point": "100 to 101"},
      {"smiles": "COc1ccc2c(c1)C(=O)CC1C2C(OC(C)=O)CC2(C)C(OC(C)=O)CCC12", "note": "(stereo unspecified)", "melting point": "199 to 200"},
      {"smiles": "COc1ccc(-c2nnc(OC)nc2-c2ccc(OC)cc2)cc1", "melting point": "135 to 137"},
      {"smiles": "O=C1c2ccccc2C(=O)N1CCCOc1ccc(OCc2ccccc2)cc1", "melting point": "141 to 143"},
      {"smiles": "CCNc1nc(C)c(-c2ccnc(Nc3cc(Cl)c(N4CCOCC4)c(Cl)c3)n2)s1", "melting point": "> 300"},
      {"smiles": "Cn1c(C(F)(F)F)cc(=O)n(-c2ccc(OCc3ccc(Cl)cc3)cc2F)c1=O", "melting point": "134 to 135"},
      {"smiles": "Cc1nn(C)c(C)c1-c1cccc(-n2c(N)nc3ccccc32)c1", "melting point": "198 to 200"},
      {"smiles": "Cc1cccc(-c2nc3ccccc3n2Cc2ccccc2Cl)c1", "melting point": 117},
      {"smiles": "CN1CCC(=O)C(C(c2ccc(Cl)cc2)c2ccc(Cl)cc2)C1", "note": "(stereo unspecified)", "melting point": "146 to 147"},
      {"smiles": "COc1ccc(COCC(O)Cc2cccnc2)cc1", "note": "(stereo unspecified)", "melting point": "55 to 56"},
      {"smiles": "CC(C)(CCl)C(=O)N(O)Cc1ccc(Cl)cc1Cl", "melting point": "103 to 106"},
      {"smiles": "CCOC(=O)COc1cc(OCC(=O)OCC)c2c(C)c(Cc3ccccc3)c(=O)n(Cc3ccccc3)c2c1", "melting point": "113 to 116"},
      {"smiles": "COc1ccc(Cl)cc1-c1nnn(-c2ccc(Cl)cc2Cl)c1N", "melting point": "154 to 155"},
      {"smiles": "O=C1c2ccccc2C(=O)N1OCc1nc(=O)c(O)c[nH]1", "melting point": "174 to 175"},
      {"smiles": "COC(=O)c1cccc2cc(-c3ccc(N)cc3)oc12", "melting point": "158 to 161"}
    ]}
  ]
}
